Read-outs that look alike come from different tables or passages of the source.
Legend:
Assay in all cases: Test B pre-/postemergence plant response
Type in all cases: in vivo
[1] = test system: Russian thistle (Salsola iberica); conditions: Preemergence; for Russian Thistle plant response rating: scale 0 to 100
Procedure, shortened: (§1)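 Seeds were sown and sprayed preemergence, while plants at 2 to 18 cm (1- to 4-leaf stage) got postemergence sprays. Compounds were formulated in a non-phytotoxic solvent mixture with surfactant. After 13 to 15 days in a greenhouse, injury was rated visually against untreated controls, 0 (no effect) to 100 (complete control).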

[2] = test system: blackgrass (Alopecurus myosuroides); conditions: for pest or weed control at 31 g/ha: 31 g ai/ha; for pest or weed control at 62 g/ha: 62 g ai/ha, 100 complete control
Procedure, shortened: as §1

[3] = test system: catchweed bedstraw (Galium aparine); conditions: Preemergence; for Galium plant response rating: scale 0 to 100
Procedure, shortened: as §1

[4] = test system: cocklebur (Xanthium strumarium); conditions: for pest or weed control at 31 g/ha: 31 g ai/ha; for pest or weed control at 62 g/ha: 62 g ai/ha, 100 complete control
Procedure, shortened: as §1

[5] = test system: common ragweed (Ambrosia elation); conditions: for pest or weed control at 31 g/ha / pest or weed control at 62 g/ha: Ambrosia, read-out: Plant response rating, Ragweed; for pest or weed control at 31 g/ha: 31 g ai/ha; for pest or weed control at 62 g/ha: 62 g ai/ha, 100 complete control
Procedure, shortened: as §1

[6] = test system: corn (Zea mays); conditions: for Corn plant response rating (crop injury, 0 = no effect, 100 = complete kill) at 31 g/ha: 31 g ai/ha; for Corn plant response rating (crop injury, 0 = no effect, 100 = complete kill) at 62 g/ha: 62 g ai/ha, 100 complete control
Procedure, shortened: as §1

[7] = test system: goosegrass (Eleusine indica); conditions: for pest or weed control at 31 g/ha / pest or weed control at 62 g/ha: Eleusine indica, read-out: Plant response rating, Goosegrass; for pest or weed control at 31 g/ha: 31 g ai/ha; for pest or weed control at 62 g/ha: 62 g ai/ha, 100 complete control
Procedure, shortened: as §1

[8] = test system: johnsongrass (Sorghum halepense); conditions: for pest or weed control at 31 g/ha / pest or weed control at 62 g/ha: Sorghum halepense, read-out: Plant response rating, Johnsongrass; for pest or weed control at 31 g/ha: 31 g ai/ha; for pest or weed control at 62 g/ha: 62 g ai/ha, 100 complete control
Procedure, shortened: as §1

[9] = test system: kochia (Kochia scoparia); conditions: for Kochia plant response rating: postemergence, 0-100 scale; for Plant response rating, Kochia: Postemergence
Procedure, shortened: as §1

[10] = test system: large crabgrass (Digitaria sanguinalis); conditions: for pest or weed control at 31 g/ha: 31 g ai/ha; for pest or weed control at 62 g/ha: 62 g ai/ha, 100 complete control
Procedure, shortened: as §1

[11] = test system: velvetleaf (Abutilon theophrasti); conditions: for pest or weed control at 31 g/ha / pest or weed control at 62 g/ha: Abutilon theophrasti, read-out: Plant response rating, Velvetleaf; for pest or weed control at 31 g/ha: 31 g ai/ha; for pest or weed control at 62 g/ha: 62 g ai/ha, 100 complete control
Procedure, shortened: as §1

[12] = test system: wild oat (Avena fatua); conditions: for pest or weed control at 31 g/ha / pest or weed control at 62 g/ha: Avena fatua, read-out: Plant response rating, Oat, Wild; for pest or weed control at 31 g/ha: 31 g ai/ha; for pest or weed control at 62 g/ha: 62 g ai/ha, 100 complete control
Procedure, shortened: as §1

[13] = test system: woolly cupgrass (Eriochloa villosa); conditions: for pest or weed control at 31 g/ha: 31 g ai/ha; for pest or weed control at 62 g/ha: 62 g ai/ha, 100 complete control
Procedure, shortened: as §1

[14] = test system: yellow nutsedge (Cyperus esculentus); conditions: for pest or weed control at 31 g/ha / pest or weed control at 62 g/ha: Cyperus, read-out: Plant response rating, Nutsedge, Yellow; for pest or weed control at 31 g/ha: 31 g ai/ha; for pest or weed control at 62 g/ha: 62 g ai/ha, 100 complete control
Procedure, shortened: as §1

[15] = 8 g ai/ha, postemergence, 0-100 scale
[16] = Preemergence, 8 g ai/ha, scale 0 to 100
[17] = Preemergence, 16 g ai/ha, scale 0 to 100
[18] = 16 g ai/ha, postemergence, 0-100 scale
[19] = post-emergence, Postemergence, scale 0 to 100
[20] = post-emergence, Postemergence, scale 0 to 100, 0 no effect
[21] = pre-emergence, Preemergence, scale 0 to 100 (0 no effect, 100 complete control)
[22] = pre-emergence, Preemergence, 0 to 100 scale, 0 no effect

Cc1nn(C)c(=O)c(-n2nc(-c3ccc(C(F)(F)F)cc3)cc2C)c1O [Compound 75, 5-hydroxy-2,6-dimethyl-4-[5-methyl-3-[4-(trifluoromethyl)phenyl]-1H-pyrazol-1-yl]-3(2H)-pyridazinone]
30%: pest or weed control at 31 g/ha ([10]; Digitaria sanguinalis, post-emergence, Postemergence, scale 0 to 100, read-out: Plant response rating, Crabgrass, Large)
50%: pest or weed control at 16 g/ha ([2]; Alopecurus myosuroides, post-emergence, Postemergence, 16 g ai/ha, scale 0 to 100, read-out: Plant response rating, Blackgrass) | Corn plant response rating (crop injury, 0 = no effect, 100 = complete kill) at 16 g/ha ([6]; Zea mays, post-emergence, Postemergence, 16 g ai/ha, scale 0 to 100) | pest or weed control at 62 g/ha [12, 22]
50: Goosegrass plant response rating [7, 18] | Goosegrass plant response rating [7, 16]
60%: pest or weed control at 31 g/ha ([2]; Alopecurus myosuroides, pre-emergence, Preemergence, scale 0 to 100 (0 no effect, 100 complete control), read-out: Plant response rating, Blackgrass) | pest or weed control at 31 g/ha [7, 19] | pest or weed control at 62 g/ha ([10]; Digitaria sanguinalis, post-emergence, Postemergence, scale 0 to 100, 0 no effect, read-out: Plant response rating, Crabgrass, Large)
85%: pest or weed control at 31 g/ha [8, 21] | pest or weed control at 31 g/ha [12, 19]
80: Johnsongrass plant response rating [8, 18]
25%: pest or weed control at 31 g/ha ([10]; Digitaria sanguinalis, pre-emergence, Preemergence, scale 0 to 100 (0 no effect, 100 complete control), read-out: Plant response rating, Crabgrass, Large)
100%: Corn plant response rating (crop injury, 0 = no effect, 100 = complete kill) at 62 g/ha ([6]; Zea mays, post-emergence, Postemergence, scale 0 to 100, 0 no effect) | pest or weed control at 62 g/ha [8, 20]
30: Goosegrass plant response rating [7, 15] | Oat, Wild plant response rating [12, 18]
98%: pest or weed control at 62 g/ha [7, 22] | pest or weed control at 31 g/ha [8, 19] | pest or weed control at 62 g/ha [12, 20]
65%: pest or weed control at 31 g/ha ([2]; Alopecurus myosuroides, post-emergence, Postemergence, scale 0 to 100, read-out: Plant response rating, Blackgrass) | pest or weed control at 16 g/ha ([13]; Eriochloa villosa, post-emergence, Postemergence, 16 g ai/ha, scale 0 to 100, read-out: Plant response rating, Cupgrass, Woolly) | pest or weed control at 31 g/ha ([13]; Eriochloa villosa, post-emergence, Postemergence, scale 0 to 100, read-out: Plant response rating, Cupgrass, Woolly) | pest or weed control at 31 g/ha ([13]; Eriochloa villosa, pre-emergence, Preemergence, scale 0 to 100 (0 no effect, 100 complete control), read-out: Plant response rating, Cupgrass, Woolly)
10: Blackgrass plant response rating [2, 15]
75: Johnsongrass plant response rating [8, 15] | Johnsongrass plant response rating [8, 17]
55%: pest or weed control at 62 g/ha ([10]; Digitaria sanguinalis, pre-emergence, Preemergence, 0 to 100 scale, 0 no effect, read-out: Plant response rating, Crabgrass, Large)
40%: pest or weed control at 31 g/ha [12, 21]
75%: Corn plant response rating (crop injury, 0 = no effect, 100 = complete kill) at 31 g/ha ([6]; Zea mays, pre-emergence, Preemergence, scale 0 to 100 (0 no effect, 100 complete control)) | pest or weed control at 62 g/ha [7, 20] | pest or weed control at 62 g/ha ([13]; Eriochloa villosa, post-emergence, Postemergence, scale 0 to 100, 0 no effect, read-out: Plant response rating, Cupgrass, Woolly) | pest or weed control at 62 g/ha ([13]; Eriochloa villosa, pre-emergence, Preemergence, 0 to 100 scale, 0 no effect, read-out: Plant response rating, Cupgrass, Woolly)
20: Blackgrass plant response rating [2, 17] | Cupgrass, Woolly plant response rating [13, 15]
0: Plant response rating, Russian Thistle ([1]; 31 g ai/ha, scale 0 to 100 (0 no effect, 100 complete control)) | Plant response rating, Russian Thistle ([1]; 62 g ai/ha, 0 to 100 scale, 0 no effect, 100 complete control) | Russian Thistle plant response rating ([1]; 8 g ai/ha) | Russian Thistle plant response rating ([1]; 16 g ai/ha) | Blackgrass plant response rating [2, 16] | Galium plant response rating ([3]; 8 g ai/ha) | Galium plant response rating ([3]; 16 g ai/ha) | Cocklebur plant response rating [4, 15] | Cocklebur plant response rating [4, 16] | Cocklebur plant response rating [4, 17] | Ragweed plant response rating [5, 15] | Ragweed plant response rating [5, 18] | Ragweed plant response rating [5, 16] | Ragweed plant response rating [5, 17] | Corn plant response rating [6, 15] | Corn plant response rating [6, 16] | Corn plant response rating [6, 17] | Johnsongrass plant response rating [8, 16] | Kochia plant response rating ([9]; 8 g ai/ha) | Kochia plant response rating ([9]; 16 g ai/ha) | Plant response rating, Kochia ([9]; 31 g ai/ha, scale 0 to 100) | Plant response rating, Kochia ([9]; 62 g ai/ha, scale 0 to 100, 0 no effect, 100 complete control) | Crabgrass, Large plant response rating [10, 15] | Crabgrass, Large plant response rating [10, 16] | Crabgrass, Large plant response rating [10, 17] | Velvetleaf plant response rating [11, 15] | Velvetleaf plant response rating [11, 18] | Velvetleaf plant response rating [11, 16] | Velvetleaf plant response rating [11, 17] | Oat, Wild plant response rating [12, 15] | Oat, Wild plant response rating [12, 16] | Oat, Wild plant response rating [12, 17] | Cupgrass, Woolly plant response rating [13, 16] | Cupgrass, Woolly plant response rating [13, 17] | Nutsedge, Yellow plant response rating [14, 15] | Nutsedge, Yellow plant response rating [14, 18] | Nutsedge, Yellow plant response rating [14, 16] | Nutsedge, Yellow plant response rating [14, 17]
90%: pest or weed control at 62 g/ha ([2]; Alopecurus myosuroides, pre-emergence, Preemergence, 0 to 100 scale, 0 no effect, read-out: Plant response rating, Blackgrass) | Corn plant response rating (crop injury, 0 = no effect, 100 = complete kill) at 31 g/ha ([6]; Zea mays, post-emergence, Postemergence, scale 0 to 100) | pest or weed control at 31 g/ha [7, 21]
95%: pest or weed control at 62 g/ha ([2]; Alopecurus myosuroides, post-emergence, Postemergence, scale 0 to 100, 0 no effect, read-out: Plant response rating, Blackgrass) | Corn plant response rating (crop injury, 0 = no effect, 100 = complete kill) at 62 g/ha ([6]; Zea mays, pre-emergence, Preemergence, 0 to 100 scale, 0 no effect) | pest or weed control at 62 g/ha [8, 22]
0%: pest or weed control at 31 g/ha ([3]; Galium aparine, pre-emergence, 31 g ai/ha, scale 0 to 100 (0 no effect, 100 complete control), read-out: Plant response rating, Galium) | pest or weed control at 62 g/ha ([3]; Galium aparine, pre-emergence, 62 g ai/ha, 0 to 100 scale, 0 no effect, 100 complete control, read-out: Plant response rating, Galium) | pest or weed control at 16 g/ha ([4]; Xanthium strumarium, post-emergence, Postemergence, 16 g ai/ha, scale 0 to 100, read-out: Plant response rating, Cocklebur) | pest or weed control at 31 g/ha ([4]; Xanthium strumarium, post-emergence, Postemergence, scale 0 to 100, read-out: Plant response rating, Cocklebur) | pest or weed control at 62 g/ha ([4]; Xanthium strumarium, post-emergence, Postemergence, scale 0 to 100, 0 no effect, read-out: Plant response rating, Cocklebur) | pest or weed control at 31 g/ha ([4]; Xanthium strumarium, pre-emergence, Preemergence, scale 0 to 100 (0 no effect, 100 complete control), read-out: Plant response rating, Cocklebur) | pest or weed control at 62 g/ha ([4]; Xanthium strumarium, pre-emergence, Preemergence, 0 to 100 scale, 0 no effect, read-out: Plant response rating, Cocklebur) | pest or weed control at 31 g/ha [5, 19] | pest or weed control at 62 g/ha [5, 20] | pest or weed control at 31 g/ha [5, 21] | pest or weed control at 62 g/ha [5, 22] | pest or weed control at 16 g/ha ([10]; Digitaria sanguinalis, post-emergence, Postemergence, 16 g ai/ha, scale 0 to 100, read-out: Plant response rating, Crabgrass, Large) | pest or weed control at 31 g/ha [11, 19] | pest or weed control at 62 g/ha [11, 20] | pest or weed control at 31 g/ha [11, 21] | pest or weed control at 62 g/ha [11, 22] | pest or weed control at 31 g/ha [14, 19] | pest or weed control at 62 g/ha [14, 20] | pest or weed control at 31 g/ha [14, 21] | pest or weed control at 62 g/ha [14, 22]
65: Goosegrass plant response rating [7, 17]

From patent US20100267561A1, “HERBICIDAL PYRIDAZINONE DERIVATIVES” (priority 2007, published 2010)
